Test results: ChEMBL document CHEMBL1201862, “PubChem BioAssay data set” (2004)
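Cells were grown in 96-well plates and exposed to each compound for 48 hours at five concentrations; endpoints were interpolated linearly between bracketing concentrations, or set to the highest concentration if not reached. Abbreviation: GI50, concentration required for 50% inhibition of growth.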 Active and inactive are the calls of the source. Cut-off read from the data, not from the text of the source: active = GI50 up to about 1.1 µM and inactive = higher.

Experiments:
Assay in all cases: growth of human tumour cells (NCI), 48 h
[1] = system: UACC-62
[2] = system: HOP-62
[3] = system: SNB-75
[4] = system: COLO 205
[5] = system: A549
[6] = system: UACC-257
[7] = system: LOX IMVI
[8] = system: MDA-MB-231
[9] = system: T47D
[10] = system: SK-MEL-2
[11] = system: SF-539
[12] = system: RXF 393
[13] = system: UO-31
[14] = system: ACHN
[15] = system: KM-20L2
[16] = system: M14
[17] = system: EKVX
[18] = system: DU-145
[19] = system: HCT-116
[20] = system: A498

Row | Compound | GI50 [1] | GI50 [2] | GI50 [3] | GI50 [4] | GI50 [5] | GI50 [6] | GI50 [7] | GI50 [8] | GI50 [9] | GI50 [10] | GI50 [11] | GI50 [12] | GI50 [13] | GI50 [14] | GI50 [15] | GI50 [16] | GI50 [17] | GI50 [18] | GI50 [19] | GI50 [20]
1 | COC1CC(CC2CCC(C)C(C(C)C(=O)O)O2)OC2(OC(C)(C3CCC(C)(C4OC(C5OC(O)(CO)C(C)CC5C)CC4C)O3)CC2C)C1C (stereo not given) | 1610 nM (inactive) | 522 nM (active) | 360 nM (active) | 116 nM (active) | 111 nM (active) | 57.8 nM (active) | 1280 nM (inactive) | 1530 nM (inactive) | 284 nM (active) | 646 nM (active) | 190 nM (active) | < 10.9 nM (active) | 1790 nM (inactive) | 964 nM (active) | 124 nM (active) | 1800 nM (inactive) | 2150 nM (inactive) | 3850 nM (inactive) | 759 nM (active) | 220 nM (active)
2 | CCOC(=O)c1c(C)c(C)n2c1NC(=O)C2 | > 60300 nM (inactive) | > 66500 nM (inactive) | 39100 nM (inactive) | > 73600 nM (inactive) | > 82600 nM (inactive) | > 60000 nM (inactive) | > 68700 nM (inactive) | 39000 nM (inactive) | 21100 nM (inactive) | > 100000 nM (inactive) | > 57000 nM (inactive) | > 40400 nM (inactive) | > 64300 nM (inactive) | > 76200 nM (inactive) | > 100000 nM (inactive) | > 53700 nM (inactive) | > 60500 nM (inactive) | 20800 nM (inactive) | 36600 nM (inactive) | > 100000 nM (inactive)
3 | COc1cc([C@@H]2c3cc4c(cc3C[C@H]3COC(=O)[C@@H]32)OCO4)cc(OC)c1OC [DESOXYPODOPHYLLOTOXIN] | 9.12 nM (active) | 12.7 nM (active) | 65.5 nM (active) | – | 8.85 nM (active) | 8.28 nM (active) | – | < 10 nM (active) | 3 nM (active) | 7.4 nM (active) | – | – | 98.6 nM (active) | 3.93 nM (active) | 7.03 nM (active) | 4 nM (active) | 5 nM (active) | 2.73 nM (active) | – | 6.95 nM (active)
